Test results reported in patent publication US11684601B2, “Treatment of cancer with combinations of agents” (The Board of Trustees of the Leland Stanford Junior …, priority 2019, dated 2023).

Tests used:
[1] = test system: acetylation on H3K9, H3K27, and total H3; experiment: Immunoblots of histone acetylation; format: cell-based; details: hypoxia, CHP134; for acetylation on H3K9, H3K27, and total H3: 5 mM acetate, 0.5 mM or 2 mM GTA
Experimental: (§1) Protein isolation and western blot. Cells were washed with PBS buffer and lysed with Harvest lysis buffer supplemented with Halt inhibitors for 5-10 min. Cell lysate was centrifuged at 5000 rpm for 5 min at 4° C. The supernatant containing cytosolic proteins was transferred to a new EP tube. The insoluble part contains nuclear proteins and was further lysed with nuclear lysis buffer for 5 min at 4° C. Then the lysate was sonicated in water-bath at 4° C. for 6 cycles (1 cycle=30 s sonication and 30 s cooldown). After sonication, the cell lysate was centrifuged at 15000 rpm for 10 min. Protein concentration was determined by BOA assay. 1 μg nuclear proteins or 1 μg cytosolic proteins were boiled in loading buffer with reducing reagents, then separated with SDS-PAGE. Protein were transferred onto a nitrocellulose membrane. After blocking in 5% non-fat milk for 1 hour, the first antibody was applied. After 3×TBST washes, HRP-conjugated secondary antibodies were applied. Signals were detected with an ECL kit. The complete antibody list is in table 1.

CHP134 cells [2] = experiment: qPCR for SNCG and NGFR expression, CHP134; format: cell-based; details: hypoxia, 16 h
Experimental: (§2) RNA Isolation, Reverse Transcription, and Real-Time PCR. Total RNA was isolated from tissue culture plates according to the TRIzol Reagent (Invitrogen) protocol. 3 μg of total RNA was used in the reverse transcription reaction using the iScript cDNA synthesis kit (Bio-Rad). Quantitative PCR amplification was performed on the Prism 7900 Sequence Detection System (Applied Biosystems) using Taqman Gene Expression Assays (Applied Biosystems). Gene expression data were normalized to 18S rRNA.

[3] = test system: tri-methylation on H3K9, H3K27; experiment: Immunoblots of histone methylation; format: cell-based; details: hypoxia; CHP134; 1 mM or 5 mM DMKG
Experimental: as §1

[4] = infants with Canavan disease; high dose; cited from earlier work
SMS-KCNR cells [5] = experiment: qPCR for SNCG and NGFR expression, SMS-KCNR; format: cell-based; details: hypoxia; 10 μM RA combined with 5 mM acetate or 2 mM GTA, 16 h
Experimental: as §2

CHP134 cells [6] = experiment: Neurite outgrowth assay, CHP134; format: cell-based
Experimental: (§3) Neurite outgrowth assay. For the differentiation of neuroblastoma cells, 1×10^5 CHP134 or SMS-KNCR cells were plated in 6 well-plate. After overnight incubation, cells in hypoxia treatment group were pre-incubated in 0.5% 02 hypoxia chamber for 6 h. Then RA was added to reach a final concentration of 10 μM. After 48 h treatment, images were taken through an Olympus phase contrast microscope (×20 magnification). The lengths of the neurites were traced and quantified using the ImageJ plugin NeuronJ. Within each sample, total neurite length was measured and normalized by the number of cell bodies, mean value from biological triplicates was reported.

SMS-KCNR cells [7] = experiment: Neurite outgrowth assay, SMS-KCNR; format: cell-based; details: 48 h
Experimental: as §3

[8] = Acetate measurement in plasma; format: in vivo, NSG mice; details: oral GTA, 5% in drinking water; p-value not significant
Experimental: For acetate measurement, 10 ul of serum was mixed with 10 ul of 50 uM ^13C2-acetate. Then, the mixture was precipitated by the addition of 80 ul acetonitrile and centrifuged for 10 min at 20,000×g. 80 ul supernatant was transferred to a new tube and derivertized according to the published protocol. 2 ul sample was subjected to mass spectrometry analysis using Agilent 1290 coupled to Q-TOF 6545. […] The mobile phase were 5 mM ammonium formate and 0.1% formic acid in water (A) and 90% acetonitrile (B). […] Agilent Q-TOF was operated in positive mode with ion spray voltage at 3500 V. The ratio of acetate to ^13C2-acetate was calculated using Agilent Profinder software B.08.00.
Mouse xenograft model. In viva studies were performed in accordance with protocols approved by the Institutional Animal Care and Use Committee at Stanford University and in compliance with all regulatory standards, 6 to 8-week-old male NSG mice were provided by Dr. Erinn Rankin. 2×10^6 CHP134 cells suspended in […] of RPMI-1640 with 50% Matrigel (BD Biosciences) were implanted subcutaneously into the dorsal flank of the mice. Tumor growth was recorded using digital caliper every other day, and tumor volumes were estimated using the formula: (L×W^2)/2, where L=length and W=width of tumor. The animals were randomized into 4 groups (Control, RA, GTA and GTA+RA) when the tumor volumes reached approximately 150 mm^3. […]

CHP134 cells [9] = experiment: Immunofluorescence staining of β-tubulin III / MAP2; format: cell-based; details: 10 μM RA, 72 h
Experimental: Immunofluorescence staining. […] cells were seeded into 8-champer slides with a density of 6000 cells/well and incubated with indicated treatment for 3 days. Cells were fixed with 4% PFA in 0.1% PBS-tween at room temperature for 30 min followed by permeabilization with 0.1% Triton X-100 in PBS at room temperature for 10 min. The cells were washed with PBS twice and blocked with 2.5% horse serum at room temperature for 1 hour. Then, cells were subjected to immunofluorescence staining with primary antibody overnight at 4° C. After twice washes with PBS, cells were incubated with Alexa Fluor 594-labeled anti-rabbit secondary antibody (Life Technologies) at room temperature for 1 hour followed by staining with DAP for 20 min. Images were acquired with Leica DMi8 microscope.

CHP134 cells [10] = experiment: RNA-Seq pathway analysis of RA-upregulated genes; format: cell-based; details: 24 h RA vs DMSO
Experimental: RNA Sequencing. The total RNA from four treatment groups (Nor_Ctrl, Nor_RA, Hyp_Ctrl and Hyp_RA, 3 replicates) was extracted using Trizol reagent according to the manufacturer's instructions (n=3). The RNA-seq library was constructed and subjected to 150 bp paired-end sequencing on an Illumina sequencing platform (Novogene). RNA-seq analysis was performed using the kallisto and sleuth analytical pipeline. In brief, a transcript index was generated with reference to Ensembl version 57 for hg19. Paired-end mRNA-seq reads were pseudo-aligned using kallisto (v0.42.4) with respect to this transcript index using 100 bootstraps (-b 100) to estimate the variance of estimated transcript abundances. Transcript-level estimates were aggregated to transcripts per million (TPM) estimates for each gene, with gene names assigned from Ensembl using biomaRt. Differential gene expression analysis was performed using the sleuth R package across pairwise groups (normoxia DMSO vs. normoxia RA, normoxia DMSO vs. hypoxia DMSO, normoxia RA vs. hypoxia RA) using Wald tests, with significant hits called with a sleuth q-vaulue<0.05 and fold change estimate b>abS(In(2)).

CHP134 mice xenografts = experiment: Mouse xenograft model; format: in vivo; details: 10 mg/kg RA i.p. daily; after 23 days' treatment
Experimental: Mouse xenograft model. […] Tumor growth was recorded using digital caliper every other day, and tumor volumes were estimated using the formula: (L×W^2)/2, where L=length and W=width of tumor. The animals were randomized into 4 groups (Control, RA, GTA and GTA+RA) when the tumor volumes reached approximately 150 mm^3. 10 mg/kg RA or DMSO vehicle was injected intraperitoneally daily for 3 weeks. Mice received GTA in the drinking water (5% by weight).

[11] = Pharmacokinetics of RA in NSG mice; format: in vivo
Experimental: For 13-cis-retinoic acid measurement, serum samples were collected at 0.5 h, 1 h, 2 h and 6 h after RA injection (10 mg/kg, i.p.). 10 ul serum was mixed with 90 ul extraction buffer (ethyl acetate:n-hexane:IPA, 30:60:10). After 20 min on a shaker at 120 rpm, the mixture was centrifuged at 5000 g for 5 min. The organic layer was collected into a new tube and dried using speed vacuum. The residue was reconstituted with 100 ul of 5 mM ammonium formate in water/acetonitrile (1:1). 5 ul sample was subjected to mass spectrometry analysis using Agilent 1290 coupled to QQQ 6470. […] The mobile phase was 5 mM ammonium formate and 0.1% formic acid in water (A) and 90% acetonitrile (B). […] Agilent QQQ 6470 was operated in positive mode with ion spray voltage at 3000 V. The MRM transitions were 301.2→159.1/205.1. Data was processed by Agilent MassHunter Quantitative Analysis for QQQ B.07.01. (Agilent Technologies)

CHP134 cells [12] = details: hypoxia vs normoxia; U-13C-acetate 3 h
Experimental: Metabolic tracing study. For glucose isotope tracing, CHP134 cells were pretreated under normoxia or hypoxia for 16 h (n=3). Then the medium was changed to DMEM:F12 with 3.15 g/L ^13C6-glucose with 10% dialyzed FBS for 3 h. For acetate isotope tracing, the procedure was same as glucose tracing except that the complete DMEM:F12 medium was supplemented with 2 mM ^13C2-acetate.
Liquid chromatography-mass spectrometry analysis. For the metabolic tracing study, cells were washed with cold PBS, lysed in 80% Ultra LC-MS acetonitrile on ice for 15 min, centrifuged for 10 min at 20,000×g, and supernatant was subjected to mass spectrometry analysis. Liquid chromatography was performed using an Agilent 1290 Infinity LC system (Agilent, Santa Clara, US) coupled to a Q-TOF 6545 mass spectrometer (Agilent, Santa Clara, US). A hydrophilic interaction chromatography method (HILIC) with a BEH amide column (100 ×2.1 mm i.d., 1.7 μm; Waters) was used for compound separation at 35° C. with a flow rate of 0.3 ml/min. The mobile phase A consisted of 25 mM ammonium acetate and 25 mM ammonium hydroxide in water and mobile phase B was acetonitrile. The gradient elution was 0-1 min, 85 % B; 1-12 min, 85% B→65% B; 12-12.2 min, 65% B→40% B; 12.2-15 min, 40% B. After the gradient, the column was re-equilibrated at 85% B for 5 min. The overall runtime was 20 min, and the injection volume was 5 μL. […]

[13] = test system: chromatin accessibility at RAR/RXR binding sites; details: hypoxia; 5 mM acetate
Experimental: ATAC-seq. ATAC-seq was performed and analyzed as previously described (n=2). […] -O 5 -m 30 -q 15. Bowtie 2 version 2.3.1 was used to align trimmed reads to hg19 with flags -q -phred33-X 2000 -fr -p 8 -x hg19, followed by samtools sort command. Duplicates were marked with Picard-tools version 1.83, then samtools view with flags -b -f 1 -F12 -L were used to filter mitochondria mapping reads with a bed file containing all chromosomes except chrM. Filtered mapping files are transferred into coverage bigwig file using deeptools with default bin size (10 bps). SPP/phantom was run to obtain the fragment length with maximum Strand cross-correlation. MACS2 callpeak function was then performed with flags -q 0.05 -nomodel-extsize=½ fragment length obtained from SPP. Associate p-values for each peak is generated and extracted from MACS2 output. Ranked gene lists were created from the RNA-Seq and ATAC-Seq datasets following differential testing. Gene set enrichment analysis were performed using the GSEA with the C2 (CP:REACTOME) MSigDB v6.2.

[14] = 10 μM RA combined with 5 mM acetate or 2 mM GTA

## COC(=O)CCC(=O)C(=O)OC [DMKG, Dimethyl-α-ketoglutarate]
[1]; 1 mM or 5 mM DMKG
  histone acetylation: did not significantly increase histone acetylation
CHP134 cells [2]; 10 μM RA combined with 5 mM DMKG
  expression of NGFR and SNCG: did not restore the expression of NGFR and SNCG
[3]
  histone hypermethylation: reduced histone hypermethylation

## CC(=O)OCC(COC(C)=O)OC(C)=O [GTA, glycerol triacetate]
[4]
  toxicity: no detectable toxicity
[1]
  acetylation on H3K9, H3K27, and total H3: restored acetylation on H3K9, H3K27, and total H3
SMS-KCNR cells [5]
  expression of NGFR and SNCG: significantly restored the expression of NGFR and SNCG
CHP134 cells [6]; GTA alone
  differentiative activity as a single agent: little to no differentiative activity
CHP134 cells [6]; hypoxia, 10 μM RA plus 2 mM GTA, 48 h
  RA-induced neuron-like morphological changes: restored the RA-induced neuron-like morphological changes
SMS-KCNR cells [7]; hypoxia, 10 μM RA plus 2 mM GTA
  RA-induced neuron-like morphological changes: restored the RA-induced neuron-like morphological changes
CHP134 cells [2]; [14]
  expression of NGFR and SNCG: significantly restored the expression of NGFR and SNCG
[8]
  plasma acetate concentration vs control group: slight increase of plasma acetate concentration

## CC1=C(/C=C/C(C)=C/C=C/C(C)=C\C(=O)O)C(C)(C)CCC1 [RA, 13-cis-retinoic acid]
CHP134 cells [6]; 10 μM RA, 48 h, hypoxia (0.5% O2) vs normoxia
  neurite outgrowth and differentiation morphology: partially diminished nerite outgrowth and the differentiation morphology
CHP134 cells [6]; 10 μM RA, 48 h, normoxia (21% O2)
  cell morphological changes / neurite outgrowth: induced obvious cell morphological changes to a mature neuronal-like phenotype characterized by neurite outgrowth
CHP134 cells [9]; hypoxia vs normoxia
  β-tubulin III/MAP2 positive neurites: partially suppressed
CHP134 cells [9]; normoxia
  β-tubulin III/MAP2 positive neurites: increased β-tubulin III/MAP2 positive neurites
SMS-KCNR cells [7]; 10 μM RA, hypoxia (0.5% O2) vs normoxia
  neurite outgrowth and differentiation morphology: partially diminished nerite outgrowth and the differentiation morphology
SMS-KCNR cells [7]; 10 μM RA, normoxia (21% O2)
  cell morphological changes / neurite outgrowth: induced obvious cell morphological changes to a mature neuronal-like phenotype characterized by neurite outgrowth
CHP134 cells [10]
  pathway analysis of RA-upregulated genes: enrichment of NGF signaling, transmission across of chemical synapses and neuronal system genes
CHP134 mice xenografts
  anti-tumor effect (tumor volume, tumor weight): didn't show anti-tumor effect
[11]; 10 mg/kg i.p.
  half-life of RA: relative short half-life
  time blood RA concentration maintained above 10 uM: around 2 h
[11]; 10 mg/kg i.p., at 6 h after injection
  blood RA concentration: reduced to the basal level
[11]; 10 mg/kg i.p., maintained for around 2 h
  blood RA concentration: above 10 uM
[11]; 10 mg/kg, after i.p. injection
  time of peak blood RA concentration: 30 min

## CC(=O)[O-].[Na+] [acetate, Sodium acetate]
[1]
  acetylation on H3K9, H3K27, and total H3: restored acetylation on H3K9, H3K27, and total H3
SMS-KCNR cells [5]
  expression of NGFR and SNCG: significantly restored the expression of NGFR and SNCG
CHP134 cells [12]
  cellular acetyl-CoA production (13C labeled acetyl-CoA[M+2]): promote cellular acetyl-CoA production
[13]
  chromatin accessibility: partially restored chromatin accessibility
  chromatin accessibility of genes with RAR/RXR binding sites: increased chromatin accessibility
CHP134 cells [2]; [14]
  expression of NGFR and SNCG: significantly restored the expression of NGFR and SNCG
